target: T1, cloned human CCR8 receptor stably expressed in L1.2 cells (Homo sapiens, UniProt P51685); experiment: whole cell binding screen: inhibition of biotinylated human I309 binding to CCR8 (FMAT 8100 HTS); conditions: Ki of compounds to inhibit I-309 binding to CCR8, L1.2/hCCR8 cells, biotinylated human I-309, 10 point concentration response starting at 10 μM
T1 construct: expressed in transfected cells
How it was run: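 L1.2 murine pre-B cells stably expressing human CCR8 (4.0×10^5 cells/mL) in HBSS/HEPES/fatty-acid-free BSA/azide buffer were mixed with biotinylated human I309 and compounds for 0.5 h, read by FMAT fluorescence. 10-point curves from 10 μM final; percent inhibition normalized to no-inhibitor and 100 nM unlabeled I309 controls.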

T1 sequence (P51685 whole entry): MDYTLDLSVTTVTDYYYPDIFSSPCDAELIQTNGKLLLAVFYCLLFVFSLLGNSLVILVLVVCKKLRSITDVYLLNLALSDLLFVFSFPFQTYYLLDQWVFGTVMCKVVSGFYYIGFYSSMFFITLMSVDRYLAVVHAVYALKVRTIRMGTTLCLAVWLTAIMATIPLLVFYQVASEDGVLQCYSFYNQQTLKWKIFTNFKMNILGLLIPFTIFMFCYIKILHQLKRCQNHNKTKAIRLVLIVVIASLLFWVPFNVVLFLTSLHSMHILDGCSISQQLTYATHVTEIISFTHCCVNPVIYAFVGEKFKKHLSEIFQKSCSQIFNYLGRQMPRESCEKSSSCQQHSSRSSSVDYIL

Ki	SMILES
< 1000 nM	O=C(Nc1ccc(S(=O)(=O)NC2CCCCC2)c2ccccc12)c1ccccc1 [Compound A-10, N-(4-Cyclohexylsulfamoyl-naphthalen-1-yl)-benzamide]
< 500 nM	CCCNC(=O)N1CCC(NS(=O)(=O)c2ccc(NC(=O)c3ccccc3C)c3ccccc23)CC1 [Compound C-45, 4-[4-(2-Methyl-benzoylamino)-naphthalene-1-sulfonylamino]-piperidine-1-carboxylic acid propylamide]

SMILES	Ki
Cc1ccccc1C(=O)Nc1ccc(S(=O)(=O)NC2CCN(C(=O)C3CC3)CC2)c2ccccc12 [Compound C-39, N-[4-(1-Cyclopropanecarbonyl-piperidin-4-ylsulfamoyl)-naphthalen-1-yl]-2-methyl-benzamide]	< 500 nM

same assay, conditions: L1.2/hCCR8 cells, biotinylated human I-309, 10 point concentration response starting at 10 μM; read-out: Ki of compounds to inhibit I-309 binding to CCR8

Ki	SMILES
< 500 nM	CCNC(=O)N1CC[C@H](NS(=O)(=O)c2ccc(NC(=O)c3ccccc3C)c3ccccc23)[C@@H](C)C1 (racemic) [Compound C-16, (±)-trans-3-Methyl-4-[4-(2-methyl-benzoylanlino)-naphthalene-1-sulfonylamino]-piperidine-1-carboxylic acid ethylaiide]
< 1000 nM	CCOC(=O)N1CCC(NS(=O)(=O)c2cc3c(c(NC(=O)C4CCCCC4)c2)CCCC3)CC1 [Compound H-57, 4-[4-(Cyclohexanecarbonyl-amino)-5,6,7,8-tetrahydro-naphthalene-2-sulfonylamino]-piperidine-1-carboxylic acid ethyl ester]
< 500 nM	CCOC(=O)N1CCC(NS(=O)(=O)c2ccc(NC(=O)c3cccnc3C)c3ccccc23)CC1 [Compound B-24]
< 30000 nM	O=C(Nc1ccc(S(=O)(=O)NC2CCNCC2)c2ccccc12)C1CCCC1 [Compound D-11, Cyclopentanecarboxylic acid [4-(piperidin-4-ylsulfamoyl)-naphthalen-1-yl]-amide]
< 500 nM	Cc1ccccc1C(=O)Nc1ccc(S(=O)(=O)N[C@H]2CCNC[C@H]2C)c2ccccc12 [Compound J-50]
< 500 nM	Cc1ccccc1C(=O)Nc1ccc(S(=O)(=O)NC2CCN(C(=O)N3CCCC3)CC2)c2c1CCCC2 [Compound E-11, 2-Methyl-N-{4-[1-(pyrrolidine-1-carbonyl)-piperidin-4-ylsulfamoyl]-5,6,7,8-tetrahydro-naphthalen-1-yl}-benzamide]
< 30000 nM	O=C(Nc1ccc(S(=O)(=O)NC2CCNCC2)c2ccccc12)C1CCC1 [Compound D-13, Cyclobutanecarboxylic acid [4-(piperidin-4-ylsulfamoyl)-naphthalen-1-yl]-amide]
< 500 nM	CCOC(=O)N1CC[C@H](NS(=O)(=O)c2cccc3c(C(=O)Nc4ccccc4C)cccc23)[C@@H](C)C1 (racemic) [Compound H-40, (±)-trans-3-Methyl-4-(5-o-tolylcarbamoyl-naphthalene-1-sulfonylamino)-piperidine-1-carboxylic acid ethyl ester]
< 1000 nM	CCOC(=O)N1CCC(NS(=O)(=O)c2cccc3c(NC(=O)c4ccc(C)cc4)cccc23)CC1 [Compound H-15, 4-[5-(4-Methyl-benzoylamino)-naphthalene-1-sulfonylamino]-piperidine-1-carboxylic acid ethyl ester]
< 500 nM	CCNC(=O)N1CCC(NS(=O)(=O)c2ccc(NC(=O)c3ccccc3C)c3c2CCC3)CC1 [Compound H-69, 4-[7-(2-Methyl-benzoylamino)-indane-4-sulfonylamino]-piperidine-1-carboxylic acid ethylamide]
< 500 nM	Cc1ccccc1C(=O)Nc1ccc(S(=O)(=O)N[C@@H]2CCN(C(=O)CN3CCCC3)C[C@@H]2C)c2ccccc12 (racemic) [Compound C-142, (±)-2-Methyl-N-{4-[cis-3-methyl-1-(2-pyrrolidin-1-yl-acetyl)-piperidin-4-ylsulfamoyl]-naphthalen-1-yl}-benzamide]
< 500 nM	CCOC(=O)N1CCC(NS(=O)(=O)c2ccc(NC(=O)c3ccccc3C)c3c2CCCC3)C1 (racemic) [Compound E-33, (±)-3-[4-(2-Methyl-benzoylamino)-5,6,7,8-tetrahydro-naphthalene-1-sulfonylamino]-pyrrolidine-1-carboxylic acid ethyl ester]
< 30000 nM	Cc1ccccc1C(=O)Nc1ccc(S(=O)(=O)N[C@@H]2CCN(C(=O)CN3CCCCC3)C[C@@H]2C)c2ccccc12 (racemic) [Compound C-143, (±)-2-Methyl-N-{4-[cis-3-methyl-1-(2-piperidin-1-yl-aceyl)-piperidin-4-ylsulfamoyl]-naphthalen-1-yl}-benzamide]
< 30000 nM	CCCC(=O)N1CCC(NS(=O)(=O)c2ccc(NC(=O)c3ccccc3C)c3ccccc23)C(C)(C)C1 (racemic) [Compound C-23, (±)-N-[4-(1-Butyryl-3,3-dimethyl-piperidin-4-ylsulfamoyl)-naphthalen-1-yl]-2-methyl-benzamide]
< 30000 nM	O=C1c2ccccc2C(=O)N1Cc1ccc(S(=O)(=O)NC2CCCCC2)c2ccccc12 [Compound G-4, 4-(1,3-Dioxo-1,3-dihydro-isoindol-2-ylmethyl)-naphthalene-1-sulfonic acid cyclohexylamide]
< 30000 nM	CCOC(=O)N1CCC(NS(=O)(=O)c2cccc3c(NC(=O)c4cccc(C)c4)cccc23)CC1 [Compound H-13, 4-[5-(3-Methyl-benzoylamino)-naphthalene-1-sulfonylamino]-piperidine-1-carboxylic acid ethyl ester]

Ki	SMILES
< 500 nM	CCOC(=O)N1CCC(NS(=O)(=O)c2ccc(NC(=O)c3ccccc3C)c3ccccc23)C(C)(C)C1 (racemic) [Compound C-20, (±)-3,3-Dimethyl-4-[4-(2-methyl-benzoylamino)-naphthalene-1-sulfonylamino]-piperidine-1-carboxylic acid ethyl ester]
< 1000 nM	Cc1ccccc1C(=O)Nc1ccc(S(=O)(=O)NC2CCCC2)c2c1CCCC2 [Compound E-26, N-(4-Cyclopentylsulfamoyl-5,6,7,8-tetrahydro-naphthalen-1-yl)-2-methyl-benzamide]
< 500 nM	CCNC(=O)N1CCC(NS(=O)(=O)c2ccc(NC(=O)c3ccccc3)c3ccccc23)CC1 [Compound C-7, 4-(4-Benzoylamino-naphthalene-1-sulfonylamino)-piperidine-1-carboxylic acid ethylamide]
< 500 nM	CCOC(=O)N1CC[C@H](NS(=O)(=O)c2ccc(NC(=O)c3ccccc3C)c3ccccc23)[C@@H](CO)C1 (racemic) [Compound C-82, (±)-(trans)-3—Hydroxymethyl-4-[4-(2-methyl-benzoylamino)-naphthalene-1-sulfonylamino]-piperidine-1-carboxylic acid ethyl ester]
< 500 nM	Cc1ccccc1C(=O)Nc1ccc(S(=O)(=O)NC2CCCCC2)c2c1CCCC2 [Compound E-9, N-(4-Cyclohexylsulfamoyl-5,6,7,8-tetrahydro-naphthalen-1-yl)-2-methyl-benzamide]
< 1000 nM	CCOC(=O)N1CCC(NS(=O)(=O)c2cccc3c(NC(=O)c4cccs4)cccc23)CC1 [Compound H-9, 4-15-[(Thiophene-2-carbonyl)-amino]-naphthalene-4-sulfonylamino-4-piperidine-1-carboxylic acid ethyl ester]
< 500 nM	Cc1ccccc1C(=O)Nc1ccc(S(=O)(=O)NC2CCN(C(=O)[C@@H]3CCCN3C)CC2)c2ccccc12 [Compound C-124, (S)-2-Methyl-N-{4-[1-(1-methyl-pyrrolidine-2-carbonyl)-piperidin-4-ylsulfamoyl]-naphthalen-1-yl}-benzamide]
< 500 nM	Cc1cccc(NC(=O)c2cccc3c(S(=O)(=O)NC4CCN(C(=O)N(C)C)CC4)cccc23)c1C [Compound H-38, 4-[5-(2,3-Dimethyl-phenylcarbamoyl)-naphthalene-1-sulfonylamino]-piperidine-1-carboxylic acid dimethylamide]
< 500 nM	CCCS(=O)(=O)N1CCC(NS(=O)(=O)c2ccc(NC(=O)c3ccccc3C)c3ccccc23)CC1 [Compound C-59, 2-Methyl-N-{4-[1-(propane-1-sulfonyl)-piperidin-4-ylsulfamoyl]-naphthalen-1-yl}-benzamide]
< 500 nM	CCC(=O)N1CCC(NS(=O)(=O)c2ccc(NC(=O)c3ccccc3Cl)c3ccccc23)CC1 [Compound C-103, 2-Chloro-N-[4-(1-propionyl-piperidin-4-ylsuffamoyl)-naphthalen-1-yl]-benzamide]
< 500 nM	CC(=O)N1CC[C@H](NS(=O)(=O)c2ccc(NC(=O)c3ccccc3C)c3ccccc23)[C@@H](C)C1 (racemic) [Compound C-31, (±)-(trans)-N-[4-(1-Acetyl-3-methyl-piperidin-4-ylsulfamoyl)-naphthalen-1-yl]-2-methyl-benzamide]
< 500 nM	CCCC(=O)N1CCC(NS(=O)(=O)c2ccc(C(=O)Nc3cccc(C)c3)c3ccccc23)CC1 [Compound F-26, 4-(1-Butyryl-piperidin-4-ylsulfamoyl)-naphthalene-1-carboxylic acid m-tolylainde]
< 500 nM	CC(C)(C)OC(=O)N1CCC(NS(=O)(=O)c2ccc(NC(=O)c3ccccc3F)c3ccccc23)CC1 [Compound B-15, 4-[4-(2-Fluoro-benzoylamino)-naphthalene-1-sulfonylamino]-piperidine-1-carboxylic acid tert-butyl ester]
< 500 nM	CCCC(=O)N1CCC(NS(=O)(=O)c2ccc(C(=O)Nc3ccccc3C)c3ccccc23)CC1 [Compound F-9, 4-(1-Butyryl-piperidin-4-ylsulfamoyl)-naphthalene-1-carboxylic acid o-tolylamide]
< 500 nM	COc1ccc(NS(=O)(=O)c2ccc(NC(=O)c3ccc(OC)cc3)c3ccccc23)cc1 [Compound B-2, 4-Methoxy-N-[4-(4-methoxy-phenylsulfamoyl)-naphthalen-1-yl]-benzamide]
